Experiment: Phase I clinical trial: treatment-emergent adverse events (patients, n (%)), dose limiting toxicity, MTD
Assay type: in vivo
Protocol: Safety, maximum tolerated dose (MTD), pharmacokinetics (PK) and preliminary antitumor activity were evaluated.
Pharmacodynamic (PD) endpoints were evaluated in surrogate (peripheral blood cells [PBCs], skin) and tumor tissues for the phosphorylation of TORC1-dependent markers (4EBP1/S6), and TORC2-dependent markers (AKT/PRAS40).

## CC(C)n1nc(-c2ccc3oc(N)nc3c2)c2c(N)ncnc21 [compound A]
7 mg/week (N = 3)
  Oral discomfort: 0 (0%)
  Patients Reporting at Least One Related TEAE: 3
  Pruritus: 0 (0%)
  RASH: 0 (0%)
  Rash: 0 (0%)
  Vomiting: 2 (67%)
  WEAKNESS: 0 (0%)
9 mg/3 W, QDx3d QW (N = 5)
  Alanine aminotransferase increased: 0 (0%)
  Asthenia: 1 (20%)
  Catheter site inflammation: 0 (0%)
  Catheter site pain: 0 (0%)
  Decreased appetite: 0 (0%)
  Diarrhoea: 1 (20%)
  Dry skin: 1 (20%)
  Dysgeusia: 0 (0%)
  Dyspnoea: 1 (20%)
  Fatigue: 0 (0%)
  Headache: 0 (0%)
  Hyperbilirubinaemia: 0 (0%)
  Hypercholesterolaemia: 1 (20%)
  Hyperglycaemia: 1 (20%)
  Hypertransaminasaemia: 1 (20%)
  Hypertriglyceridaemia: 1 (20%)
  Hypomagnesaemia: 1 (20%)
  Hypotension: 1 (20%)
  Low fever: 0 (0%)
  Lymphopenia: 1 (20%)
  Mucosal inflammation: 2 (40%)
  Nausea: 2 (40%)
  Palmar-plantar erythrodysaesthesia syndrome: 1 (20%)
  Patients Reporting at Least One Related TEAE: 4 (80%)
  Platelet count decreased: 0 (0%)
  Pruritus: 2 (40%)
  Pyrexia: 0 (0%)
  Rash: 3 (60%)
  Rash macular: 0 (0%)
  Urinary tract infection: 1 (20%)
  Vomiting: 2 (40%)
9 mg/3 W, QDx3d QW (N = 5), 2nd Asthenia line
  Asthenia: 0 (0%)
10 mg/5 W, QDx5d QW (N = 3)
  Diarrhoea: 0 (0%)
  Patients Reporting at Least One Related TEAE: 1 (33%)
  Rash: 0 (0%)
  Urine tract infection: 1 (33%)
  Vomiting: 1 (33%)
10 mg/5 W, QDx5d QW (N = 3), 1st Nausea line
  Nausea: 1 (33%)
10 mg/5 W, QDx5d QW (N = 3), 2nd Nausea line
  Nausea: 0 (0%)
10 mg/week (N = 3)
  ASTHENIA: 0 (0%)
  ATHENIA: 0 (0%)
  Alanine aminotransferase increased: 0 (0%)
  Aspartate aminotransferase increased: 1 (33%)
  Asthenia: 0 (0%)
  Blood creatinine increased: 0 (0%)
  Blood triglycerides increased: 0 (0%)
  DIARRHEA: 0 (0%)
  Decreased appetite: 0 (0%)
  Diarrhoea: 0 (0%)
  Dysgeusia: 0 (0%)
  Dyspepsia: 0 (0%)
  HYPERGLYCEMIA: 0 (0%)
  Hyperglycaemia: 1 (33%)
  Lymphopenia: 0 (0%)
  Malaise: 0 (0%)
  Mucosal inflammation: 0(0%)
  Muscle spasms: 0 (0%)
  Nausea: 2 (67%)
  Oral discomfort: 1 (33%)
  Patients Reporting at Least One Related TEAE: 2 (67%)
  Pruritus: 0 (0%)
  RASH: 0 (0%)
  Rash: 0 (0%)
  Vomiting: 1 (33%)
  WEAKNESS: 0 (0%)
12 mg/3 W, QDx3d QW (N = 3)
  Alanine aminotransferase increased: 0 (0%)
  Asthenia: 1 (33%)
  Catheter site inflammation: 1 (33%)
  Catheter site pain: 1 (33%)
  Decreased appetite: 1 (33%)
  Diarrhoea: 0 (0%)
  Dry skin: 0 (0%)
  Dysgeusia: 1 (33%)
  Dyspnoea: 0 (0%)
  Fatigue: 0 (0%)
  Headache: 0 (0%)
  Hyperbilirubinaemia: 0 (0%)
  Hypercholesterolaemia: 0 (0%)
  Hyperglycaemia: 2 (67%)
  Hypertransaminasaemia: 0 (0%)
  Hypertriglyceridaemia: 0 (0%)
  Hypomagnesaemia: 0 (0%)
  Hypotension: 0 (0%)
  Low fever: 0 (0%)
  Lymphopenia: 0 (0%)
  Mucosal inflammation: 1 (33%)
  Nausea: 2 (67%)
  Palmar-plantar erythrodysaesthesia syndrome: 0 (0%)
  Patients Reporting at Least One Related TEAE: 2 (67%)
  Platelet count decreased: 0 (0%)
  Pruritus: 1 (33%)
  Pyrexia: 0 (0%)
  Rash: 0 (0%)
  Rash macular: 1 (33%)
  Urinary tract infection: 0 (0%)
  Vomiting: 0 (0%)
12 mg/3 W, QDx3d QW (N = 3), 2nd Asthenia line
  Asthenia: 0 (0%)
15 mg/week (N = 3)
  ASTHENIA: 0 (0%)
  ATHENIA: 0 (0%)
  Alanine aminotransferase increased: 0 (0%)
  Aspartate aminotransferase increased: 0 (0%)
  Asthenia: 0 (0%)
  Blood creatinine increased: 1 (33%)
  Blood triglycerides increased: 1 (33%)
  DIARRHEA: 0 (0%)
  Decreased appetite: 0 (0%)
  Diarrhoea: 0 (0%)
  Dysgeusia: 0 (0%)
  Dyspepsia: 0 (0%)
  HYPERGLYCEMIA: 0 (0%)
  Hyperglycaemia: 2 (67%)
  Lymphopenia: 0 (0%)
  Malaise: 0 (0%)
  Mucosal inflammation: 0 (0%)
  Muscle spasms: 0 (0%)
  Nausea: 2 (67%)
  Oral discomfort: 0 (0%)
  Patients Reporting at Least One Related TEAE: 3
  Pruritus: 0 (0%)
  RASH: 0 (0%)
  Rash: 0 (0%)
  Vomiting: 0 (0%)
  WEAKNESS: 0 (0%)
16 mg/3 W, QDx3d QW (N = 3)
  Alanine aminotransferase increased: 0 (0%)
  Asthenia: 1 (33%)
  Catheter site inflammation: 0 (0%)
  Catheter site pain: 0 (0%)
  Decreased appetite: 0 (0%)
  Diarrhoea: 1 (33%)
  Dry skin: 0 (0%)
  Dysgeusia: 0 (0%)
  Dyspnoea: 0 (0%)
  Fatigue: 1 (33%)
  Headache: 1 (33%)
  Hyperbilirubinaemia: 0 (0%)
  Hypercholesterolaemia: 0 (0%)
  Hyperglycaemia: 2 (67%)
  Hypertransaminasaemia: 0 (0%)
  Hypertriglyceridaemia: 0 (0%)
  Hypomagnesaemia: 0 (0%)
  Hypotension: 0 (0%)
  Low fever: 1 (33%)
  Lymphopenia: 0 (0%)
  Mucosal inflammation: 2 (67%)
  Nausea: 0 (0%)
  Palmar-plantar erythrodysaesthesia syndrome: 0 (0%)
  Patients Reporting at Least One Related TEAE: 2 (67%)
  Platelet count decreased: 0 (0%)
  Pruritus: 0 (0%)
  Pyrexia: 1 (33%)
  Rash: 0 (0%)
  Rash macular: 0 (0%)
  Urinary tract infection: 0 (0%)
  Vomiting: 0 (0%)
16 mg/3 W, QDx3d QW (N = 3), 2nd Asthenia line
  Asthenia: 1 (33%)
20 mg Q3D
  Dose limiting toxicity: Muco-
20 mg/week (N = 3)
  ASTHENIA: 0 (0%)
  ATHENIA: 0 (0%)
  Alanine aminotransferase increased: 0 (0%)
  Aspartate aminotransferase increased: 0 (0%)
  Asthenia: 2 (67%)
  Blood creatinine increased: 0 (0%)
  Blood triglycerides increased: 0 (0%)
  DIARRHEA: 0 (0%)
  Decreased appetite: 1 (33%)
  Diarrhoea: 2 (67%)
  Dysgeusia: 0 (0%)
  Dyspepsia: 1 (33%)
  HYPERGLYCEMIA: 0 (0%)
  Hyperglycaemia: 1 (33%)
  Lymphopenia: 0 (0%)
  Malaise: 0 (0%)
  Mucosal inflammation: 2 (67%)
  Muscle spasms: 1 (33%)
  Nausea: 2 (67%)
  Oral discomfort: 0 (0%)
  Patients Reporting at Least One Related TEAE: 2 (67%)
  Pruritus: 1 (33%)
  RASH: 0 (0%)
  Rash: 1 (33%)
  Vomiting: 1 (33%)
  WEAKNESS: 0 (0%)
30 mg/week (N = 3)
  ASTHENIA: 1 (33%)
  ATHENIA: 1 (33%)
  Alanine aminotransferase increased: 0 (0%)
  Aspartate aminotransferase increased: 0 (0%)
  Asthenia: 0 (0%)
  Blood creatinine increased: 0 (0%)
  Blood triglycerides increased: 0 (0%)
  DIARRHEA: 1 (33%)
  Decreased appetite: 0 (0%)
  Diarrhoea: 0 (0%)
  Dysgeusia: 0 (0%)
  Dyspepsia: 0 (0%)
  HYPERGLYCEMIA: 2 (67%)
  Hyperglycaemia: 0 (0%)
  Lymphopenia: 0 (0%)
  Malaise: 1 (33%)
  Mucosal inflammation: 1 (33%)
  Muscle spasms: 0 (0%)
  Nausea: 3
  Oral discomfort: 0 (0%)
  Patients Reporting at Least One Related TEAE: 3
  Pruritus: 0 (0%)
  RASH: 1 (33%)
  Rash: 0 (0%)
  Vomiting: 1 (33%)
  WEAKNESS: 1 (33%)
40 mg QW
  Dose limiting toxicity: As-
